{"source": "patent US11964953B2", "about": "“Substituted aminothiazoles as DGKzeta inhibitors for immune activation” (Bayer Aktiengesellschaft, priority 2020, dated 2024)"}
{"molecular_target": "human DGKζ (Homo sapiens (Human), UniProt Q13574)", "sequence (Q13574 other isoform, or with tags, fused parts or gaps)": "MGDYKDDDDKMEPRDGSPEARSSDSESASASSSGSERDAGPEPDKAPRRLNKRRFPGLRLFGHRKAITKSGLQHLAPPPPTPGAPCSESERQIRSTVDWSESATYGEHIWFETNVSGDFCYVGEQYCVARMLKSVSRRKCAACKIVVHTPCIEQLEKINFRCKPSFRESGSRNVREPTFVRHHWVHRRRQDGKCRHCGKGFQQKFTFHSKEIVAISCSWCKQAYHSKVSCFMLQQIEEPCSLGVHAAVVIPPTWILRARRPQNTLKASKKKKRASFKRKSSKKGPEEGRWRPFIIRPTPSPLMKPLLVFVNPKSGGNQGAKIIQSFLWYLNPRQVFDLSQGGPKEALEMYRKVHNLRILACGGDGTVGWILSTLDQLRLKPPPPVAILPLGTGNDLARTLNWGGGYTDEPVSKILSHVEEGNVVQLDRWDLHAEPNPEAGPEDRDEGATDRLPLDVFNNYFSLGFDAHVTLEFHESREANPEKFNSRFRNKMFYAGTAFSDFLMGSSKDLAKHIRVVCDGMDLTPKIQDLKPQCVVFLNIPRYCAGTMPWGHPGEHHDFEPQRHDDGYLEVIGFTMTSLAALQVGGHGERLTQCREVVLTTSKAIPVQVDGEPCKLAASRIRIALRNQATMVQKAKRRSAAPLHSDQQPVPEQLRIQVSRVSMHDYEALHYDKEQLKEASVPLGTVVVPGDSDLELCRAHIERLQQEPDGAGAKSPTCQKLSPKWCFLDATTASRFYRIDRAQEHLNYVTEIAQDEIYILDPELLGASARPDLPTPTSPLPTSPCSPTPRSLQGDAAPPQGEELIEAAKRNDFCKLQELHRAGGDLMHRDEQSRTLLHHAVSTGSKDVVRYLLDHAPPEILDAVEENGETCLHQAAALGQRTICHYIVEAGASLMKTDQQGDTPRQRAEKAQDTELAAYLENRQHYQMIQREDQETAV", "assay": "Human DGKζ kinase activity inhibition assay (ADP-Glo)", "format": "biochemical", "conditions": "in vitro human DGKζ kinase activity inhibition assay; read-out: IC50", "summary_of_the_method": "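ADP-Glo luminescence, reflecting ADP produced, served as the readout of activity. Full-length human DGKζ, FLAG-tagged at the C-terminus and insect-cell expressed, was used; lipid substrate mix was sonicated with octyl-β-D-glucopyranoside in 50 mM MOPS pH 7.4.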", "units": {"IC50": "nM"}}
{"compound": "CC(C(N)=O)N(c1ccc(F)cc1)c1nc(N)c(C(=O)c2ccc(N3CC4CC4C3)nc2)s1", "note": "(racemic) [Example 282, rac-2-(N-[4-amino-5-[6-(3-azabicyclo[3.1.0]hexan-3-yl)pyridine-3-carbonyl]thiazol-2-yl]-4-fluoro-anilino)propanamide]", "IC50": 53}
{"compound": "CC(C(N)=O)N(c1ccc(F)c(OC(F)F)c1)c1nc(N)c(C(=O)c2ccccc2)s1", "note": "(racemic) [Example 237, rac-2-[N-(4-amino-5-benzoyl-thiazol-2-yl)-3-(difluoromethoxy)-4-fluoro-anilino]propanamide]", "IC50": 749}
{"compound": "CNC(=O)c1ccc(C(=O)c2sc(N(c3ccc(F)cc3)C(C)C(N)=O)nc2N)cc1", "note": "(racemic) [Example 15, rac-4-[4-amino-2-(N-[2-amino-1-methyl-2-oxo-ethyl]-4-fluoro-anilino)thiazole-5-carbonyl]-N-methyl-benzamide]", "IC50": 266}
{"compound": "CC(C(N)=O)N(c1ccc(OC(F)(F)F)c(F)c1)c1nc(N)c(C(=O)c2ccc(OC(F)F)nc2)s1", "note": "(racemic) [Example 221, rac-2-[N-[4-amino-5-[6-(difluoromethoxy)pyridine-3-carbonyl]thiazol-2-yl]-3-fluoro-4-(trifluoromethoxy)anilino]propanamide]", "IC50": 31}
{"compound": "CC(C(N)=O)N(c1nc(N)c(C(=O)c2ccc(OC(F)F)cc2)s1)c1ccc(Cl)cc1F", "note": "(single isomer, unassigned) [Example 46.2, 2-(N-[4-amino-5-[4-(difluoromethoxy)benzoyl]thiazol-2-yl]-4-chloro-2-fluoro-anilino)propanamide]", "IC50": 5.69}
{"compound": "CC(C(N)=O)N(c1ccc(OC(F)(F)F)c(Cl)c1)c1nc(N)c(C(=O)c2ccncc2)s1", "note": "(racemic) [Example 225, rac-2-[N-[4-amino-5-(pyridine-4-carbonyl)thiazol-2-yl]-3-chloro-4-(trifluoromethoxy)anilino]propanamide]", "IC50": 252}
{"compound": "CC(C(N)=O)N(c1cccnc1)c1nc(N)c(C(=O)c2ccccc2)s1", "note": "(single isomer, unassigned) [Example 79.1, 2-[(4-amino-5-benzoyl-thiazol-2-yl)-(3-pyridyl)amino]propanamide]", "IC50": 1660}
{"compound": "CC1CCN(c2ccc(C(=O)c3sc(N(c4ccc(F)cc4)C(C)C(N)=O)nc3N)cn2)CC1", "note": "(racemic) [Example 276, rac-2-(N-[4-amino-5-[6-(4-methyl-1-piperidyl)pyridine-3-carbonyl]thiazol-2-yl]-4-fluoro-anilino)propanamide]", "IC50": 29}
{"compound": "CC(C(N)=O)N(c1ccc(F)cc1)c1nc(N)c(C(=O)c2ccc(Cl)cc2)s1", "note": "(racemic) [Example 38, rac-2-(N-[4-amino-5-(4-chlorobenzoyl)thiazol-2-yl]-4-fluoro-anilino)propanamide]", "IC50": 19.3}
{"compound": "CC(C(N)=O)N(c1ccc(F)cc1)c1nc(N)c(C(=O)c2ccc(OCC(=O)N(C)C3CCN(C)CC3)cc2)s1", "note": "(racemic) [Example 101, rac-2-(N-[4-amino-5-[4-[2-[methyl-(1-methyl-4-piperidyl)amino]-2-oxo-ethoxy]benzoyl]thiazol-2-yl]-4-fluoro-anilino)propanamide]", "IC50": 329}
{"compound": "CCOc1ccc(N(c2nc(N)c(C(=O)c3ccccc3)s2)C(C)C(N)=O)cc1", "note": "(racemic) [Example 195, rac-2-(N-(4-amino-5-benzoyl-thiazol-2-yl)-4-ethoxy-anilino)propanamide]", "IC50": 1000}
{"compound": "CC(C(N)=O)N(c1ccc2c(c1)OC(F)(F)O2)c1nc(N)c(C(=O)c2ccc(OC(F)F)cc2)s1", "note": "(racemic) [Example 214, rac-2-[[4-amino-5-[4-(difluoromethoxy)benzoyl]thiazol-2-yl]-(2,2-difluoro-1,3-benzodioxol-5-yl)amino]propanamide]", "IC50": 16}
{"compound": "COc1ccc(N(c2nc(N)c(C(=O)c3ccccc3)s2)C(C)C(N)=O)cn1", "note": "(racemic) [Example 227, rac-2-[(4-amino-5-benzoyl-thiazol-2-yl)-(6-methoxy-3-pyridyl)amino]propanamide]", "IC50": 393}
{"compound": "CC(C(N)=O)N(c1ccc(F)cc1)c1nc(N)c(C(=O)c2ccc(OC(F)F)cc2)s1", "note": "(single isomer, unassigned) [Example 44.2, 2-(N-[4-amino-5-[4-(difluoromethoxy)benzoyl]thiazol-2-yl]-4-fluoro-anilino)propanamide]", "IC50": 6.72}
{"compound": "CC(C(N)=O)N(c1ccc(F)cc1)c1nc(N)c(C(=O)c2ccc(N3CCC(C)(C#N)CC3)nc2)s1", "note": "(racemic) [Example 285, rac-2-(N-[4-amino-5-[6-(4-cyano-4-methyl-1-piperidy!)pyridine-3-carbonyl]thiazol-2-yl]-4-fluoro-anilino)propanamide]", "IC50": 68}
{"compound": "CC(C(N)=O)N(c1ccc(F)cc1)c1nc(N)c(C(=O)c2ccc(C#N)cc2)s1", "note": "(single isomer, unassigned) [Example 33.2, 2-(N-[4-amino-5-(4-cyanobenzoyl)thiazol-2-yl]-4-fluoro-anilino)propanamide]", "IC50": 22.8}
{"compound": "CC(C(N)=O)N(c1ccc(C(F)(F)F)nc1)c1nc(N)c(C(=O)c2ccccc2)s1", "note": "(racemic) [Example 230, rac-2-[(4-amino-5-benzoyl-thiazol-2-yl)-[6-(trifluoromethyl)-3-pyridyl]amino]propanamide]", "IC50": 199}
{"compound": "CC(C(N)=O)N(c1ccc(F)cc1)c1nc(N)c(C(=O)c2ccc(Br)nc2)s1", "note": "(racemic) [Example 274, rac-2-(N-[4-amino-5-(6-bromopyridine-3-carbonyl)thiazol-2-yl]-4-fluoro-anilino)propanamide]", "IC50": 107}
{"compound": "CC(C)NC(=O)COc1ccc(C(=O)c2sc(N(c3ccc(F)cc3)C(C)C(N)=O)nc2N)cc1", "note": "(racemic) [Example 82, rac-2-(N-[4-amino-5-[4-[2-(isopropylamino)-2-oxo-ethoxy]benzoyl]thiazol-2-yl]-4-fluoro-anilino)propanamide]", "IC50": 89.6}
{"compound": "CC(C(N)=O)N(c1ccc(Cl)c(F)c1)c1nc(N)c(C(=O)c2ccc(OC(F)F)nc2)s1", "note": "(single isomer, unassigned) [Example 164.1, 2-(N-[4-amino-5-[6-(difluoromethoxy)pyridine-3-carbonyl]thiazol-2-yl]-4-chloro-3-fluoro-anilino)propanamide]", "IC50": 5}
{"compound": "CC(C(N)=O)N(c1ccc(Cl)c(Cl)c1)c1nc(N)c(C(=O)c2ccccc2)s1", "note": "(racemic) [Example 35, rac-2-(N-(4-amino-5-benzoyl-thiazol-2-yl)-3,4-dichloro-anilino)propanamide]", "IC50": 25.3}
{"compound": "CC(C(N)=O)N(c1ccc(OC(F)F)c(Cl)c1)c1nc(N)c(C(=O)c2ccc(OC(F)F)cc2)s1", "note": "(racemic) [Example 201, rac-2-[N-[4-amino-5-[4-(difluoromethoxy)benzoyl]thiazol-2-yl]-3-chloro-4-(difluoromethoxy)anilino]propanamide]", "IC50": 25}
{"compound": "CC(C(N)=O)N(c1ccc(F)cc1)c1nc(N)c(C(=O)c2ccc(O)cc2)s1", "note": "(racemic) [Example 157, rac-2-(N-[4-amino-5-(4-hydroxybenzoyl)thiazol-2-yl]-4-fluoro-anilino)propanamide]", "IC50": 190}
{"compound": "CC(C(N)=O)N(c1ccc(F)c(F)c1)c1nc(N)c(C(=O)c2ccncc2)s1", "note": "(single isomer, unassigned) [Example 50.1, 2-(N-[4-amino-5-(pyridine-4-carbonyl)thiazol-2-yl]-3,4-difluoro-anilino)propanamide]", "IC50": 127}
{"compound": "CC(C(N)=O)N(c1nc(N)c(C(=O)c2ccccc2)s1)c1ccccc1F", "note": "(single isomer, unassigned) [Example 75.1, 2-(N-(4-amino-5-benzoyl-thiazol-2-yl)-2-fluoro-anilino)propanamide]", "IC50": "> 20000"}
{"compound": "CC(C(N)=O)N(c1ccc(F)cc1)c1nc(N)c(C(=O)c2ccc(C(F)(F)F)nc2)s1", "note": "(single isomer, unassigned) [Example 29.2, 2-(N-[4-amino-5-[6-(trifluoromethyl)pyridine-3-carbonyl]thiazol-2-yl]-4-fluoro-anilino)propanamide]", "IC50": 46.2}
{"compound": "CC(C(N)=O)N(c1ccc(F)cc1)c1nc(N)c(C(=O)c2ccc(N3CCC(C4COC4)CC3)nc2)s1", "note": "(racemic) [Example 277, rac-2-(N-[4-amino-5-[6-[4-(oxetan-3-yl)-1-piperidyl]pyridine-3-carbonyl]thiazol-2-yl]-4-fluoro-anilino)propanamide]", "IC50": 494}
{"compound": "CC(C(N)=O)N(c1nc(N)c(C(=O)c2ccccc2)s1)c1ccccc1F", "note": "(racemic) [Example 75, rac-2-(N-(4-amino-5-benzoyl-thiazol-2-yl)-2-fluoro-anilino)propanamide]", "IC50": 419}
{"compound": "CC(C(N)=O)N(c1ccc(OC(F)F)nc1)c1nc(N)c(C(=O)c2ccccc2)s1", "note": "(racemic) [Example 229, rac-2-[(4-amino-5-benzoyl-thiazol-2-yl)-[6-(difluoromethoxy)-3-pyridyl]amino]propanamide]", "IC50": 193}
{"compound": "CC(C(N)=O)N(c1ccc(F)cc1)c1nc(N)c(C(=O)c2ccc(OCC(=O)N3CCCCCC3)cc2)s1", "note": "(racemic) [Example 123, rac-2-(N-[4-amino-5-[4-[2-(azepan-1-yl)-2-oxo-ethoxy]benzoyl]thiazol-2-yl]-4-fluoro-anilino)propanamide]", "IC50": 100}
{"compound": "CC(C(N)=O)N(c1ccc(F)cc1)c1nc(N)c(C(=O)c2ccc(-n3ccnc3)cc2)s1", "note": "(racemic) [Example 20, rac-2-(N-[4-amino-5-(4-imidazol-1-ylbenzoyl)thiazol-2-yl]-4-fluoro-anilino)propanamide]", "IC50": 161}
{"compound": "CC(C(N)=O)N(c1ccc(F)cc1)c1nc(N)c(C(=O)c2ccc(OC(F)(F)F)cc2)s1", "note": "(racemic) [Example 40, rac-2-(N-[4-amino-5-[4-(trifluoromethoxy)benzoyl]thiazol-2-yl]-4-fluoro-anilino)propanamide]", "IC50": 15.4}
{"compound": "CC(C(N)=O)N(c1ccc(F)cc1)c1nc(N)c(C(=O)c2ccc(C#N)cc2)s1", "note": "(single isomer, unassigned) [Example 33.1, 2-(N-[4-amino-5-(4-cyanobenzoyl)thiazol-2-yl]-4-fluoro-anilino)propanamide]", "IC50": 8610}
